Literature values in article PMC2916017 (Journal of biomedical optics, 2009).

Columns and labels:
αvβ3–positive tumor = conditions: previous work; specific activities 200–500 Ci/mmol
caspase-3 = molecular target: T1, caspase-3 (Homo sapiens, UniProt P42574); conditions: standard substrate, comparison value; no reference given
T1 sequence (P42574 29-175 limits assumed): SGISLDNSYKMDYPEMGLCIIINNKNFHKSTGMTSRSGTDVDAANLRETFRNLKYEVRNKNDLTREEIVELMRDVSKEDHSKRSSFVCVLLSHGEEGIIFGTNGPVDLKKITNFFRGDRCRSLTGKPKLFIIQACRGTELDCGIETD
T1 sequence (P42574 176-277 limits assumed): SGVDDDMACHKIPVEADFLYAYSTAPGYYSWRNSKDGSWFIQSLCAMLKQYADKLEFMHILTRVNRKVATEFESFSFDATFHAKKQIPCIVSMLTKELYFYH

Km (caspase-3) [µM] | kcat (caspase-3) [s⁻¹] | Substance | tumor visualization by small animal PET (αvβ3–positive tumor)
 |  | ^64Cu-DOTA-c(RGDyK) (head to tail) | receptor specific tumor accumulation allowed for αvβ3–positive tumor visualization by small animal PET
9.7 | 0.75 | Ac-DEVD-AMC | 
11 |  | Ac-DEVD-pNA | 
